From patent US11291618B2, “Long wear skincare compositions” (priority 2019, dated 2022)
Where two headings read alike, the source gives them in different places.

Experiments:
[1] = Penetration test using a Strat-M membrane in a Franz Cell, UPLC analysis
Procedure: In this study, exemplary actives with different hydrophilicity value were chosen. P is the partition coefficient, where a smaller P (more negative log P) indicates greater hydrophilicity. A penetration test was performed using a Strat-M® membrane, and the collected sample was then analyzed by Ultra-Performance Liquid Chromatography (UPLC). In the receptor chamber of a Franz Cell, 5.00 mL of the incubation medium was added as the collection phase. A Strat-M® membrane was loaded on top of the receptor chamber. The donor chamber was then added on top of the Strat-M® membrane, 0.80 mL of the crème was added to the donor chamber. […] At the end of that time period, 1.00 mL of the collection phase was withdrawn from the sampling port as the sample solution. The sample solution was filtered through a 0.45 micrometer (μm) syringe filter and then added into a 2.0 milliliter (mL) High Performance Liquid Chromatography (HPLC) vial. ACQUITY H UPLC from the Waters Corporation was used to analyze the collected samples from the Franz Cell study.
The amount of actives in the collection phase were analyzed by UPLC following the method described above.

[2] = cited from earlier work

O=C1O[C@H]([C@@H](O)CO)C(O)=C1O[C@H]1O[C@H](CO)[C@@H](O)[C@H](O)[C@H]1O [ascorbyl glucoside]
effect of inclusion of the copolymer blend on delivery of the active [1]: enhanced the delivery
Active Log P [2]: −4.79

Cn1c(=O)c2c(ncn2C)n(C)c1=O [caffeine]
% of Penetration ([1]; Franz Cell, room temperature, 48 hours): greater than 100%

NC(=O)c1cccnc1 [niacinamide]
effect of inclusion of the copolymer blend on delivery of the active ([1]; with versus without copolymer blend): did not enhance the delivery
